Data published in patent US20100240686A1, “CHEMICAL COMPOUNDS” (priority 2006, published 2010).

Molecular target: T1, CDK2/Cyclin E (Homo sapiens, UniProt P24941)
T1 construct: The open reading frames of CDK2 and Cyclin E were isolated by reverse transcriptase-PCR; made in house; host or cells: Spodoptera frugiperda SF21 insect cells (baculovirus co-infection, pVL1393)
Experiment: in vitro kinase assay, Scintillation Proximity Assay (incorporation of [γ-33-P]-ATP into GST-Rb)
Assay type: biochemical
Details: CDK2/Cyclin E partially-purified enzyme, GST-Rb substrate, 0.2 μM ATP, room temperature 60 minutes; read-out: CDK2 inhibitory activity IC50
Experimental: The compounds were tested in an in vitro kinase assay in 96 well format using Scintillation Proximity Assay (SPA—obtained from Amersham) for measuring incorporation of [γ-33-P]-Adenosine Triphosphate into a test substrate (GST-Retinoblastoma protein; GST-Rb). In each well was placed the compound to be tested (diluted in DMSO and water to correct concentrations) and in control wells either roscovitine as an inhibitor control or DMSO as a […] control.
Approximately 0.2 μl of CDK2/Cyclin E partially-purified enzyme (amount dependent on enzyme activity) diluted in 25 μl incubation buffer was added to each well then 20 μl of GST-Rb/ATP/ATP33 mixture (containing 0.5 μg GST-Rb and 0.2 μM ATP and 0.14 μCi [γ-33-P]-Adenosine Triphosphate in incubation buffer), and the resulting mixture shaken gently, then incubated at room temperature for 60 minutes. […]
The plates were sealed with Topseal-S plate sealers, left for two hours then spun at 2500 rpm, 1124×g., for 5 minutes. The plates were read on a Topcount for 30 seconds per well. […]
The open reading frames of CDK2 and Cyclin E were isolated by reverse transcriptase-PCR using HeLa cell and activated T cell mRNA as a template and cloned into the insect expression vector pVL1393 (obtained from Invitrogen 1995 catalogue number: V1392-20). […]

- IC50: 3 nM
Compound: Cc1ncc(-c2ccnc(Nc3ccc(C(=O)NCCN(C)C)c(F)c3)n2)n1C(C)C [Example 2, N-(2-Dimethylaminoethyl)-2-fluoro-4-[[4-(2-methyl-3-propan-2-yl-imidazol-4-yl)pyrimidin-2-yl]amino]benzamide]
